# Test: Human HepG2 cell viability assay in 384 well format
# Type: toxicity, cell-based
# Design: dose 125 nL, time 70.5 hour; concentration not given beside the values
# Conditions: HepG2 cells, read-out: Inhibition
smiles,measurement,value
CCc1ccc(CN2CCN(c3ccc(C#N)cc3)C(=O)C2)nc1,cytotoxicity at 70.5 h,-10.5%
Cc1nc(CN(C)C(=O)C2CC(=O)N(c3cccc(O)c3)C2)cs1 (configuration not stated),cytotoxicity at 70.5 h,-2.8%
CC(C)[C@@H]1CN(Cc2c[nH]nc2-c2ccc(F)cc2)C[C@H]1NS(C)(=O)=O,cytotoxicity at 70.5 h,-2.13%
COC(=O)CNC(=O)CC1COc2ccc(C(=O)N(C)C)cc2N1C (configuration not stated),cytotoxicity at 70.5 h,-2.55%
O=C(CN1CCCCCC1)NCCSc1cnn[nH]1,cytotoxicity at 70.5 h,0.00682%
CC(C)(C)CCN1CCC(c2nnc(Cn3cccn3)n2C2CC2)CC1,cytotoxicity at 70.5 h,-9.38%
Cc1c(C(=O)N[C@H]2CN(CCS(C)(=O)=O)C[C@@H]2C2CC2)cnn1C,cytotoxicity at 70.5 h,-5.86%
O=C1NCC2(CCCN(C(=O)c3c[nH]nc3-c3cccs3)C2)O1 (configuration not stated),cytotoxicity at 70.5 h,-8.3%
CCOCC(=O)N1CCC(Cc2nnc(SC)n2C)CC1,cytotoxicity at 70.5 h,-3.88%
CCc1nc(N2CCN(CCOC)CC2)c2cnn(C)c2n1,cytotoxicity at 70.5 h,-11.9%
CCC1(CO)CCCN(Cc2nccn2Cc2ccccc2)C1 (configuration not stated),cytotoxicity at 70.5 h,-4.15%
CCn1c(C2CCN(Cc3cc(C)n(NC(C)=O)c3C)CC2)n[nH]c1=O,cytotoxicity at 70.5 h,-4.98%
O=C(NC1CC(=O)N(C2Cc3ccccc3C2)C1)c1csnn1 (configuration not stated),cytotoxicity at 70.5 h,-1.65%
COCCN(C)C[C@@H]1CN(C(=O)c2ccc(C)c(Cl)c2)C[C@@H]1CO,cytotoxicity at 70.5 h,1.13%
Cc1ccccc1C(=O)N1CC[C@@H](N2CCC(O)CC2)[C@H](O)C1,cytotoxicity at 70.5 h,-1.6%
CC(C)c1cc(N2CCCC3(CCN(C)C3)C2)ncn1 (configuration not stated),cytotoxicity at 70.5 h,-5.86%
CCc1cn[nH]c1C1CCCN(C(=O)c2cc(C#N)c(=O)[nH]c2C)C1 (configuration not stated),cytotoxicity at 70.5 h,-22.8%
O=C(Nc1ccc(S(=O)(=O)Nc2c(F)cccc2F)cc1)N1CCCC1,cytotoxicity at 70.5 h,-6.84%
Cc1cccc2cc(CO)c(N3Cc4cnc(C(C)(C)C)nc4C3)nc12,cytotoxicity at 70.5 h,7.83%
C[C@@H]1CN(Cc2cc(C(F)(F)F)ccc2F)CC[C@@]1(O)C1CC1,cytotoxicity at 70.5 h,-2.04%
CC(=O)N1CCC(N[C@@H]2CC[C@@H]2NS(=O)(=O)c2cccnc2)CC1,cytotoxicity at 70.5 h,2.57%
CCn1cc(CN2CCCC3(CCC(=O)N(CCC(C)C)C3)C2)cn1 (configuration not stated),cytotoxicity at 70.5 h,-1.61%
CC(C)[C@H]1COC(=O)N1CC(=O)N1CCCN(C(=O)c2ccoc2)CC1,cytotoxicity at 70.5 h,-8.34%
CC(C)Cc1cc(CNC(=O)C2CCCN(Cc3ccco3)C2)no1 (configuration not stated),cytotoxicity at 70.5 h,-4.13%
COc1ccccc1C1CCN(C(=O)CN2C(=O)OC(C)(C)C2=O)CC1,cytotoxicity at 70.5 h,-6.76%
Cc1cccc(-n2ncc3c2CCCC3NCC(C)(C)CO)c1C (configuration not stated),cytotoxicity at 70.5 h,-10.7%
O=C(c1ccccc1-c1nc[nH]n1)N1CCOC(C(F)(F)F)C1 (configuration not stated),cytotoxicity at 70.5 h,-2.49%
CN(C)c1nc2c(c(NCc3nnc4n3CCCCC4)n1)CCNC2,cytotoxicity at 70.5 h,-6.97%
CC(C)n1ccc(CN2CCN(c3cc(NC4CC4)nc(N)n3)CC2)c1,cytotoxicity at 70.5 h,-9%
CCCc1cc(=O)[nH]c(-c2ccccc2CN(C)CCC(C)C)n1,cytotoxicity at 70.5 h,18.2%
CC(=O)Nc1ccc(C(=O)N(C)C(C)Cc2cc(C)ccn2)cn1 (configuration not stated),cytotoxicity at 70.5 h,1.81%
CN1CC[C@H]2CN(C(=O)COCc3nc4cc(F)ccc4[nH]3)C[C@H]21,cytotoxicity at 70.5 h,20.4%
Cc1nc(O)cc(CCNC(=O)c2ccccc2N2CCCC2)n1,cytotoxicity at 70.5 h,27%
CCc1cc(N[C@H]2CCC[C@H]2CO)n2nccc2n1,cytotoxicity at 70.5 h,6%
CCCn1cc(C(=O)NCCc2ccc3c(c2)OCO3)c(C)n1,cytotoxicity at 70.5 h,-4.51%
CCc1c(C)sc(NC(=O)CN2CCOCC2)c1C(=O)OC,cytotoxicity at 70.5 h,-6.67%
CSCc1ccc(N2CCC(C(O)Cc3ccccc3)CC2)nc1 (configuration not stated),cytotoxicity at 70.5 h,26.6%
COCCN(C)CCN1CC2(CCN(C3CCNCC3)CC2)OC1=O,cytotoxicity at 70.5 h,-10.2%
CN(C(=O)c1cccc(NCc2cccs2)c1)C(C1CC1)C1CC1,cytotoxicity at 70.5 h,-11.2%
CC(=O)N1C[C@H](NS(=O)(=O)c2cccc(Cl)c2)[C@@H](C(C)C)C1,cytotoxicity at 70.5 h,-9.51%
CCC[C@H]1CN(c2nccc(OC)n2)C[C@@H]1NS(=O)(=O)N(C)C,cytotoxicity at 70.5 h,0.969%
Cc1[nH]nc(CCC(=O)N2CCc3ncnc(NCCO)c3CC2)c1C,cytotoxicity at 70.5 h,-12.5%
COc1coc(CN2CCCC(CCc3ccccc3F)C2)cc1=O (configuration not stated),cytotoxicity at 70.5 h,16.9%
CCCNS(=O)(=O)c1ccc2[nH]c(=O)cc(C)c2c1,cytotoxicity at 70.5 h,-12.9%
Cc1cccnc1CC(C)NC1Cc2ccccc2C1 (configuration not stated),cytotoxicity at 70.5 h,5.92%
O=C(NC1CC1)c1nc(Cn2c(C(F)F)nc3ccccc32)no1,cytotoxicity at 70.5 h,-7.88%
Cc1noc(C)c1CCNc1nccc(CCC(F)(F)F)n1,cytotoxicity at 70.5 h,-8.75%
CNCc1cn(C2CCN(C(=O)NCc3ccco3)CC2)nn1,cytotoxicity at 70.5 h,-8.5%
CCc1nc2c(NCC3COc4cc(OC)ccc4C3)ncnc2o1 (configuration not stated),cytotoxicity at 70.5 h,-5.75%
CC(C)NC(=O)c1nc(Cn2c(C(F)F)nc3ccccc32)no1,cytotoxicity at 70.5 h,-15.2%
CN(C)S(=O)(=O)N1CC[C@]2(O)CCN(c3nccs3)C[C@@H]2C1,cytotoxicity at 70.5 h,21.2%
CCN1CCN(C(=O)COc2ccc(CN(C)S(C)(=O)=O)cc2)CC1,cytotoxicity at 70.5 h,-3.87%
CCc1ccc(CNC(=O)CCc2nnc(-c3ccc(C)s3)o2)nc1,cytotoxicity at 70.5 h,-3.31%
CCCN(Cc1cccc(OCCO)c1)Cc1ccccc1OC,cytotoxicity at 70.5 h,5.31%
CN(C)CC(C)(C)Cn1cnc(-c2ccccc2)c1-c1ccncc1,cytotoxicity at 70.5 h,-9.09%
CCCN1CCC(NC(=O)c2csc(C)c2C)CC1,cytotoxicity at 70.5 h,-7.88%
CC(C1CCN(Cc2cnn(C)c2C2CC2)CC1)N1CCCC1 (configuration not stated),cytotoxicity at 70.5 h,-7.31%

# Source: ChEMBL document CHEMBL3507680, “University of Dundee, Gates Library screen for HepG2 cell viability”
